Reference: patent EP0752477A2, “Expression vectors that produce steroid receptors, steroid receptor chimera, screening assays for steroid receptors and clinical assays using synthesized receptors and receptor vectors” (BAYLOR COLLEGE OF MEDICINE, priority 1990, dated 1991)
pEC50: −log10 of the molar value. One block for each compound: values may come before it.

Key:
YRpEG3 reporter = assay: Activity of the YRpEG3 reporter alone (no receptor); format: cell-based, Saccharomyces cerevisiae
Description: The transcriptional activity of the receptor was assayed under similar conditions to Example 15 except that the cells were grown in glucose (Fig. 1B). In the presence of glucose, the transcriptional activity of GAL4 is completely repressed because the GAL4 protein is incapable of binding to its response element. Under these conditions estrogen receptor activation of the GAL4-ERE can be monitored without interference. […] At all concentrations of receptor the activation of transcription was entirely hormone dependent.

GAL4 = assay: Activation of GAL4/ERE binding site chimera reporters by galactose in BJ3505; format: cell-based, Saccharomyces cerevisiae; settings: grown in galactose
From the text: It is known that the estrogen receptor binds to and activates gene transcription through a 13 bp palindromic sequence (ERE). Placing ERE upstream of the promoter in a CYC-l-β-gal fusion vector and transforming into Saccharomyces cerevisiae results in a reporter which responded to estrogen in a receptor-dependent manner. To monitor the binding of the estrogen receptor to the ERE sequence in vivo, an interference assay was developed. An oligonucleotide containing a GAL4 (17 mer) recognition sequence and an ERE was constructed such that the two sites would overlap by 1 base. In this way only ER or GAL4 but not both molecules could occupy the same site. This sequence was cloned as a single, double, or triple copy distal to the promoter in a yeast iso-l-cytochrome C reporter (PC3).
These plasmids were introduced into yeast and assayed for transcriptional activity in the presence of glucose and galactose. The results are shown in Table I and reveal that galactose induced transcription of the reporter gene, and activity increased dramatically as the number of GAL sites increased. When grown in glucose, transcriptional activity was completely repressed.

human estrogen receptor = assay: Estrogen responsive reporter assay in yeast, wild type estrogen receptor; format: cell-based; settings: ER
From the text: (§1) The mechanism by which steroid receptors enhance transcription is unclear, however, there is a clear correlation between the ability of the receptor to activate transcription and the presence of an acidic activation region in the protein. […] As illustrated in Fig. 9 this was accomplished for the human estrogen receptor by digestion of the yeast expression vector for estrogen, YEpE2 with Notl, filling in the ends with T4 polymerase and religating in the presence of the filled in Rsal - Sall fragment of the VP16 protein. After the receptor is inserted in the proper orientation it produces a chimeric receptor which includes within its reading frame a VP16 activating domain.
(§2) A comparison of the wild type estrogen receptor and the modified receptor was made in yeast using the estrogen responsive reporters.

[1] = molecular target: T1, chicken progesterone receptor (Gallus gallus, UniProt P07812); assay: β-Galactosidase transcription assay in yeast with expression plasmid and reporter YRpP1; format: cell-based
T1 construct: ubiquitin (N, cleaved yes); expressed in transfected cells
T1 sequence (P07812 1-786): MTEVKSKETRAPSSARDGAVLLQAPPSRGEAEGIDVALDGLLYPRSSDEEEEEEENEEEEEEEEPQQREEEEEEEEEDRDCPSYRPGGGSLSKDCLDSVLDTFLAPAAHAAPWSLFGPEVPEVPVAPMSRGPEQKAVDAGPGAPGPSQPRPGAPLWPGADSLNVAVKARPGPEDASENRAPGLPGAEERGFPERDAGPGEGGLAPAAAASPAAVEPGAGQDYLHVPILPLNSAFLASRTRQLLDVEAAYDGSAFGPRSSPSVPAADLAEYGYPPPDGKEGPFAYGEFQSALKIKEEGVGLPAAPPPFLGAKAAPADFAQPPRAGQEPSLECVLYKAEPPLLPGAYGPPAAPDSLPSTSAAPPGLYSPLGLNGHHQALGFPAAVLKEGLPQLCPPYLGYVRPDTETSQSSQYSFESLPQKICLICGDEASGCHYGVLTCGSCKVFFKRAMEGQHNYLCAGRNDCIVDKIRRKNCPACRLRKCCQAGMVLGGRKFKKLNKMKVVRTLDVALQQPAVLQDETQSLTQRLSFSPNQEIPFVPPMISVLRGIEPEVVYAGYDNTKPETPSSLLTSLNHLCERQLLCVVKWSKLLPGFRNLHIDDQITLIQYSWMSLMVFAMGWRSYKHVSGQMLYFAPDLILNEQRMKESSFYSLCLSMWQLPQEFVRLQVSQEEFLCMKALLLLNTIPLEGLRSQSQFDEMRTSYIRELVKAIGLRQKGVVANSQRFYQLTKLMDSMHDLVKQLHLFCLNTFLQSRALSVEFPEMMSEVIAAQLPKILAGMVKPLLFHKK
Description: A reporter YRpP1 containing the progesterone responsive sequence and the β-Galactosidase gene was used to quantitate the transcriptional activity of the chicken progesterone receptor. Yeast containing both the expression and the reporter plasmids was grown overnight in minimal media supplemented with 2% glucose. […] Four sets of tubes were inoculated (a) no additions, (b) +100µM CuSO4, (c) +0.1µM progesterone, and (d) +100µM CuSO4, 0.1µM progesterone. When the cells reached mid-log phase they were harvested by centrifugation. The cells were lysed using glass beads and the cytosol was clarified by centrifugation. Aliquots (1-100µg) of protein were assayed for β-Galactosidase activity according to the method of Miller and expressed as units/mg protein.

Super ER = assay: Estrogen responsive reporter assay in yeast, modified (super) estrogen receptor with VP16 activating domain; format: cell-based, human; settings: +CuSO4, no E2
From the text: as §1, §2

Compound: COc1ccc2c(c1)CCC(c1ccccc1)=C2c1ccc(OCCN2CCCC2)cc1 [nafoxidine]
direct effects on the activity of the YRpEG3 reporter alone (YRpEG3 reporter): no direct effects

Compound: O=C[C@H](O)[C@@H](O)[C@@H](O)[C@H](O)CO [Galactose, galactose]
TRANSCRIPTIONAL ACTIVITY (GAL4; reporter YRpEG1, 1 binding site): 860
TRANSCRIPTIONAL ACTIVITY (GAL4; reporter YRpEG2, 2 binding sites): 2,350
TRANSCRIPTIONAL ACTIVITY (GAL4; reporter YRpEG3, 3 binding sites): 16,500

Compound: C[C@]12CC[C@@H]3c4ccc(O)cc4CC[C@H]3[C@@H]1CC[C@@H]2O [E2, estradiol]
direct effects on the activity of the YRpEG3 reporter alone (YRpEG3 reporter): no direct effects
activity of estrogen responsive reporter (human estrogen receptor; +CuSO4+E2): 4344 Miller units per milligram of protein
activity of estrogen responsive reporter (human estrogen receptor; +E2): 5760 Miller units per milligram of protein

β-Galactosidase activity ([1]; +0.1µM progesterone, no CuSO4): <500 Miller units
β-Galactosidase activity ([1]; +100µM CuSO4, 0.1µM progesterone): 50,000 Miller units
Compound: CC(=O)[C@H]1CC[C@H]2[C@@H]3CCC4=CC(=O)CC[C@]4(C)[C@H]3CC[C@]12C [Prog., progesterone, reference compound]

Compound: O=S(=O)([O-])[O-].[Cu+2] [CuSO4]
direct effects on the activity of the YRpEG3 reporter alone (YRpEG3 reporter): no direct effects
activity of estrogen responsive reporter (Super ER): 4133 Miller units per milligram of protein
β-Galactosidase activity ([1]; +100µM CuSO4, no progesterone): <500 Miller units
pEC50 ([1]; CUP1 promoter driven receptor expression, other data, read-out: concentration sufficient to activate half maximally this transcription unit): 6.00
activity of estrogen responsive reporter (human estrogen receptor; +CuSO4, no E2): 473 Miller units per milligram of protein
